These results are taken from patent US9034352B2, “Microbicide combinations containing silver” (Rohm and Haas Company, priority 2006, dated 2015).

Like-named read-outs stand apart in the source and are kept apart here.

What all share (assay): Synergy test, high resolution MIC microtiter plate assay
Type in all cases: cell-based

The test system of experiment [1] is Esherichia coli (E. coli—ATCC #8739). The settings on record: Ag-polymer on active silver ion basis; for MIC: Escherichia coli, read-out: MIC of component acting alone (end point). From the text: (§1) One measure of synergism is the industrially accepted method described by Kull, F. C.; Eisman, P. C.; Sylwestrowicz, H. D. and Mayer, R. L., in Applied Microbiology 9:538-541 (1961), using the ratio determined by the formula: Ca/CA+Cb/CB=Synergy Index (“SI”) wherein:
(§2) CA=concentration of compound A (first component) in ppm, acting alone, which produced an end point (MIC of Compound A).
(§3) Ca=concentration of compound A in ppm, in the mixture, which produced an end point.
(§4) CB=concentration of compound B (second component) in ppm, acting alone, which produced an end point (MIC of Compound B).
(§5) Cb=concentration of compound B in ppm, in the mixture, which produced an end point.
(§6) When the sum of Ca/CA and Cb/CB is greater than one, antagonism is indicated. […] The lower the SI, the greater the synergy shown by that particular mixture. The minimum inhibitory concentration (MIC) of an antimicrobial compound is the lowest concentration tested under a specific set of conditions that prevents the growth of added microorganisms.
(§7) Synergy tests were conducted using standard microtiter plate assays with media designed for optimal growth of the test microorganism. Soybean Casein Digest Broth (Tryptic Soy Broth, TSB medium) or minimal salt medium supplemented with 0.2% glucose and 0.1% yeast extract (M9GY medium) was used for testing bacteria; Potato Dextrose Broth (PDB medium) was used for testing yeast and mold. In this method, a wide range of combinations of microbicides was tested by conducting high resolution MIC assays in the presence of various concentrations of the biocides. High resolution MICs were determined by adding varying amounts of microbicide to one column of a microtitre plate and doing subsequent ten-fold dilutions using an automated liquid handling system.
(§8) […]. The bacteria were used at a concentration of about 1-6×10^6 bacteria per mL and the yeast and mold at 1-5×10^5 fungi per mL. These microorganisms are representative of natural contaminants in many consumer and industrial applications. […] (yeast and mold) or 30° C. (bacteria).
(§9) The end point values in the following examples for the silver-polymer complex are reported on an active silver ion basis.

In experiment [2] the test system is Candida albicans (C. albicans—ATCC 10231). Conditions: C. albicans, Ag-polymer on active silver ion basis; for MIC: Candida albicans, ATCC10231, read-out: MIC of component acting alone (end point).
Excerpt: as §1, §2, §3, §4, §5, §6, §7, §8, §9

Experiment [3] has as its system Pseudomonas aeruginosa (P. aeruginosa—ATCC #15442). The settings on record: Pseudomonas aeruginosa, ATCC15442, P. aeruginosa, Ag-polymer on active silver ion basis, read-out: MIC of component acting alone (end point).
Excerpt: as §1, §2, §3, §4, §5, §6, §7
(§10) The bacteria were used at a concentration of about 1-6×10^6 bacteria per mL and the yeast and mold at 1-5×10^5 fungi per mL. These microorganisms are representative of natural contaminants in many consumer and industrial applications. […] (yeast and mold) or 30° C. (bacteria).

Experiment [4] deals with Aspergillus niger (A. niger—ATCC 16404). The settings on record: A. niger, Ag-polymer on active silver ion basis; for MIC: Aspergillus niger, read-out: MIC of component acting alone (end point).
Excerpt: as §1, §2, §3, §4, §5, §6, §7, §10

In experiment [5] the test system is Staphylococcus aureus (S. aureus—ATCC #6538). Conditions: S. aureus, Ag-polymer on active silver ion basis; for MIC: Staphylococcus aureus, ATCC6538, read-out: MIC of component acting alone (end point).
Excerpt: as §1, §2, §3, §4, §5, §6, §7, §10

In experiment [6] the test system is Samonella choleraesuis (S. choleraesuis—ATCC #10708). The settings on record: for MIC: Salmonella enterica, read-out: MIC of component acting alone (end point).
Excerpt: as §1, §2, §3, §4, §5, §6, §7
The synergy of the combinations of the present invention was determined against four bacteria, gram positive Staphylococcus aureus (S. aureus—ATCC #6538) and gram negative Pseudomonas aeruginosa (P. aeruginosa—ATCC #15442), Samonella choleraesuis (S. choleraesuis—ATCC #10708) and Esherichia coli (E. coli—ATCC #8739), a yeast, Candida albicans (C. albicans—ATCC 10231), and a mold, Aspergillus niger (A. niger—ATCC 16404). The bacteria were used at a concentration of about 1-6×10^6 bacteria per mL and the yeast and mold at 1-5×10^5 fungi per mL. These microorganisms are representative of natural contaminants in many consumer and industrial applications. […] (yeast and mold) or 30° C. (bacteria).
as §9

[7] abbreviates: ATCC16404, 168 h, contact time 7 days.
Setting [8] is: S. choleraesuis, contact time 48 hour, Ag-polymer on active silver ion basis.

On to `CCCCCCCCn1sc(Cl)c(Cl)c1=O` [DCOIT, 4,5-dichloro-2-n-octyl-4-isothiazolin-3-one, reference compound], for which the minimal inhibitory concentration (MIC) (in general, the lowest concentration found to suppress growth) in experiment [1] (ATCC8739, contact time 24 hour) amounted to 0.29 µg/mL; in experiment [1] (ATCC8739, contact time 48 hour), 0.43 µg/mL; in experiment [2] (contact time 48 hour), 0.15 µg/mL; in experiment [3] (contact time 24 hour), 1.5 µg/mL; in experiment [3] (contact time 48 hour), 2.9 µg/mL; in experiment [4] (setting [7]) it was 2 µg/mL. The figures for the minimum inhibitory concentration (MIC) in experiment [5] (contact time 24 hour), in experiment [5] (contact time 48 hour) and in experiment [6] were 0.29 µg/mL, 0.29 µg/mL and 1.5 µg/mL, respectively.

As for `CCCCCCCCn1sccc1=O` [OIT, 2-n-octyl-4-isothiazolin-3-one, reference compound], the MIC turned out to be 294 µg/mL in experiment [1] (ATCC8739, contact time 24 hour); 294 µg/mL in experiment [1] (ATCC8739, contact time 48 hour); 0.81 µg/mL in experiment [2] (contact time 24 hour); 0.99 µg/mL in experiment [2] (contact time 48 hour); 444 µg/mL in experiment [3] (contact time 24 hour); 3.9 µg/mL in experiment [4] (ATCC16404, 72 h, contact time 3 days). Further, the minimal inhibitory concentration (MIC) in experiment [4] (setting [7]) is 5.76 µg/mL; in experiment [5] (contact time 24 hour), 72.8 µg/mL; in experiment [5] (contact time 48 hour), 72.8 µg/mL; in experiment [6] (S. choleraesuis, contact time 24 hour, Ag-polymer on active silver ion basis), 361 µg/mL; in experiment [6] (setting [8]), 361 µg/mL.

As to “C12-C16 alkyl dimethylbenzylammonium chloride [reference compound]”, the “MIC of component acting alone (end point)” value in experiment [1] (contact time 48 hour) was found to be 4.9 ppm; in experiment [2] (contact time 24 hour) it was 40.3 ppm; in experiment [2] (contact time 48 hour) it was 98 ppm; in experiment [4] (contact time 3 days), 194 ppm; in experiment [4] (contact time 7 days) it was 603 ppm; in experiment [5] (contact time 24 hour), 19.4 ppm. Moreover, the “MIC of component acting alone (end point)” value came to 19.4 ppm in experiment [5] (contact time 48 hour) and 6.9 ppm in experiment [6] (setting [8]).
